Data taken from ChEMBL document CHEMBL3351233, “Design, stereoselective synthesis, configurational stability and biological activity of 7-chloro-9-(furan-3-yl)-2,3,3a,4-tetrahydro-1H-benzo[e]pyrrolo[2,1-c][1,2,4]thiadiazine 5,5-dioxide” (Bioorg Med Chem, 2014).

Columns and labels:
Rattus norvegicus [1] = organism: Rattus norvegicus; assay: Positive allosteric modulator activity at AMPA receptor in 7 days old Sprague-Dawley rat cerebellar granule neurons assessed as potentiation of kainite-evoked current at 10 uM by whole cell patch clamp technique
Rattus norvegicus [2] = organism: Rattus norvegicus; assay: Positive allosteric modulator activity at AMPA receptor in 7 days old Sprague-Dawley rat cerebellar granule neurons assessed as potentiation of 5-Will-evoked current at 10 uM by whole cell patch clamp technique
[3] = Chemical stability of the compound in water/acetonitrile mobile phase by chromatography; type: physicochemical; conditions: buffer

| Activity (Rattus norvegicus [1]) [%] | Activity (Rattus norvegicus [2]) [%] | Stability [3] | Structure (SMILES) |
| --- | --- | --- | --- |
| 12 | 122 |  | O=S1(=O)N[C@H]2CCCN2c2c(-c3ccoc3)cc(Cl)cc21 |
| 8 | 10 |  | CC1Nc2ccc(Cl)cc2S(=O)(=O)N1 (stereo not drawn) |
| 74 | 245 |  | O=S1(=O)N[C@@H]2CCCN2c2c(-c3ccoc3)cc(Cl)cc21 |
| 30 |  | Stable | O=S1(=O)NC2CCCN2c2c(-c3ccoc3)cc(Cl)cc21 (racemic) |
